Measurements taken from US20250368648A1, “MULTI-CYCLIC IRAK AND FLT3 INHIBITING COMPOUNDS AND USES THEREOF” (CHILDREN'S HOSPITAL MEDICAL CENTER, priority 2022, published 2025).
Like-named read-outs stand apart in the source and are kept apart here.

What was measured:
NF-κB = assay: NF-kB assay in THP-1-Blue NF-κB cells (SEAP reporter); assay type: cell-based
Description: THP-1-Blue NF-κB cells (InvivoGen) carrying a stable integrated NF-κB-inducible secreted embryonic alkaline phosphatase (SEAP) reporter construct were plated at a concentration of 1×10^5 cells per well. The cells were stimulated with Pam3CSK4 (1 ng/mL) or hIL1B (Ing/mL). After 10-20 minutes, the cells were then treated with vehicle (DMSO) or serial dilutions of the test compounds (10 doses tested for each test compound, with a 1:10 dilution series starting at 1 μM or 3 μM) with a final volume of 200 μL for 24 hours at 37° C. After 24 hours, the cells were centrifuged and 20 IL supernatant was incubated with 180 μL QUANTI-Blue reagent at 37° C. for 30-60 minutes. The levels of NF-κB-induced was measured in a microplate reader at 620 nm.

IRAK1 = target: T1, IRAK1 (Homo sapiens, UniProt P51617); assay: DiscoverX KINOMEscan competition binding, IRAK1; conditions: no ATP
T1 construct: purchased RBC (Reaction Biology) HotSpot assay
Source text: (§1) Kinase binding data were obtained for various exemplary compounds prepared according to Examples 2-15 using the DiscoverX KINOMEscan® active site-directed competition binding site-directed assay protocol described below. […] As a result, the data report thermodynamic interaction affinities (Kd values), rather than IC50 values that are dependent on ATP concentrations. The assay uses a DNA-tagged version of the protein kinase, and an immobilized ligand bound to a solid support. Compounds that directly or indirectly prevent kinase binding to the immobilized ligand reduce the amount of kinase captured on the solid support, which is detected using an ultra-sensitive qPCR method. Affinity constants reported from the assay have been reported to be independent of the immobilized ligand used that is coupled to the solid support (See supplemental information in Fabian, M. A. et. al., (2005) Nat. […] Wodicka, L. […] Biol. 17, 1241-1249.) Kinase-tagged T7 phage strains were prepared in an E. coli host derived from the BL21 strain. E. coli were grown to log-phase and infected with T7 phage and incubated with shaking at 32° C. until lysis. […] Kds were determined using an 11-point 3-fold compound dilution series with three DMSO control points. […] The kinase concentration in the eluates was measured by qPCR. Binding constants (Kds) were calculated with a standard dose-response curve using the Hill equation. […]

FLT3 R834Q = target: T2, FLT3 R834Q (Homo sapiens, UniProt P36888, R834Q); assay: DiscoverX KINOMEscan competition binding, FLT3 R834Q; conditions: no ATP
T2 construct: purchased DiscoverX (KINOMEscan); host or cells: E. coli (T7 phage) or HEK-293
T2 sequence (P36888 27-993 R834Q): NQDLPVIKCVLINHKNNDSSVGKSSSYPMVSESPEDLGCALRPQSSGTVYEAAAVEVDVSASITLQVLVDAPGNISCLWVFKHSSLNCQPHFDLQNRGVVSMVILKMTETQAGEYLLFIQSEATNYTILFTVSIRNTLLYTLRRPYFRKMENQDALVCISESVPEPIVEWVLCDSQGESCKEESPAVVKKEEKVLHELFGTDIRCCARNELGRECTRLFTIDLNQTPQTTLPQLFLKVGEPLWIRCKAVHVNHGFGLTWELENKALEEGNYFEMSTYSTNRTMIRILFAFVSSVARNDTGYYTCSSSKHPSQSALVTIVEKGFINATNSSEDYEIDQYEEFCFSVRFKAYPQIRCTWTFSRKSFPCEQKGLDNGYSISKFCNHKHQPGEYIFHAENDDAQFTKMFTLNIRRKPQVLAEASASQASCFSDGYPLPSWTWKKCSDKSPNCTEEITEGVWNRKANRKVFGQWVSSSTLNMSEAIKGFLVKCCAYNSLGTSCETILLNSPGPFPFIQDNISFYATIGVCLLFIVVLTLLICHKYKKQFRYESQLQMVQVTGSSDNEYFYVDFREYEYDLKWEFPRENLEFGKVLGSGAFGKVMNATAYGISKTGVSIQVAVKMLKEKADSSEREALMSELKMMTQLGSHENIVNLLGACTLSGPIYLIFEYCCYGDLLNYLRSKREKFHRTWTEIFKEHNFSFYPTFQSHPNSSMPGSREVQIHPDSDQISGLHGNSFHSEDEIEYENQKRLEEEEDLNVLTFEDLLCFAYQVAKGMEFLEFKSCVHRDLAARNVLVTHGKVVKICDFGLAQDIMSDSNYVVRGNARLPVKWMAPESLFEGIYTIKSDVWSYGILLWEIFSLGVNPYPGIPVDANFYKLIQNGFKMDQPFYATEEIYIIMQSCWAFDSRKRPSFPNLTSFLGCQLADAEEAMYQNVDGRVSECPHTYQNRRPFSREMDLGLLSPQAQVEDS
Source text: as §1

[1] = THP-1-Blue NF-κB cells stimulated with Pam3CSK4, 24 hours, read-out: NF-κB Pam3SCK4 IC50
[2] = THP-1-Blue NF-κB cells stimulated with hIL1B, 24 hours, read-out: NF-κB IL1B IC50

T1 sequence (P51617 whole entry): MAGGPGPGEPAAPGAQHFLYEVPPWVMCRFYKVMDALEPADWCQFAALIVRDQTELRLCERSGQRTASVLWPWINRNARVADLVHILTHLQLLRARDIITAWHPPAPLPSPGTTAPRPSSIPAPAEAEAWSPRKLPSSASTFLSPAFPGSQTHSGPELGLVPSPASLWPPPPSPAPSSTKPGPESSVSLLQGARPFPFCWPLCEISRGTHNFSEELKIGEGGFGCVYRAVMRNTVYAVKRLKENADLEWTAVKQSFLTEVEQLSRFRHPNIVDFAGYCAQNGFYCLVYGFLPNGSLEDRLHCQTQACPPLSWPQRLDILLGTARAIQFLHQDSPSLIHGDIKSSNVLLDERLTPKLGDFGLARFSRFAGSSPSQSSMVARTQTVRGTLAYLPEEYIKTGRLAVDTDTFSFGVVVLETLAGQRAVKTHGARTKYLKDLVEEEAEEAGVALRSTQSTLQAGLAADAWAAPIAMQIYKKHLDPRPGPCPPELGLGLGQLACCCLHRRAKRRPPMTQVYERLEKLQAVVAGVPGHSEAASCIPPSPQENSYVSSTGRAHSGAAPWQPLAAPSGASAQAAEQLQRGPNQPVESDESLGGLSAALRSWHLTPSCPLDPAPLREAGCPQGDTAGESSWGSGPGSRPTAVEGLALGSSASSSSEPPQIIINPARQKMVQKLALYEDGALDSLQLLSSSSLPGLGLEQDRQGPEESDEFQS

Row | SMILES | IC50 (NF-κB; [1]) [nM] | IC50 (NF-κB; [2]) [nM] | Kd (IRAK1) [nM] | Kd (FLT3 R834Q) [nM]
1 | COc1cc2ncc(-c3nc(N[C@H]4CNCC[C@@H]4F)c(F)cc3F)n2nc1C(C)(O)C(F)(F)F (single isomer, unassigned) [Compound 77a] | 166 | 254 |  | 
2 | COc1cc2ncc(-c3nc(N[C@H]4CNCC[C@@H]4F)c(F)cc3F)n2nc1C1CCC1 [Compound 15a, 6-(6-cyclobutyl-7-methoxyimidazo[1,2-b]pyridazin-3-yl)-3,5-difluoro-N-((3S,4S)-4-fluoropiperidin-3-yl)pyridin-2-amine] | 108 | 136 | 1.4 | 0.81
3 | COc1cc2ncc(-c3nc(N[C@H]4CNCC[C@@H]4F)c(F)cc3F)n2nc1C12CC(C1)C2 [Compound 67a, 6-(6-(bicyclo[1.1.1]pentan-1-yl)-7-methoxyimidazo[1,2-b]pyridazin-3-yl)-3,5-difluoro-N-((3S,4S)-4-fluoropiperidin-3-yl)pyridin-2-amine] | 284 | 331 |  | 
